pKi: −log10 of the molar value.
Molecular target: T1, Prolyl 4-hydroxylase subunit alpha-1 (Gallus gallus, UniProt P16924)
T1 sequence (P16924 whole entry): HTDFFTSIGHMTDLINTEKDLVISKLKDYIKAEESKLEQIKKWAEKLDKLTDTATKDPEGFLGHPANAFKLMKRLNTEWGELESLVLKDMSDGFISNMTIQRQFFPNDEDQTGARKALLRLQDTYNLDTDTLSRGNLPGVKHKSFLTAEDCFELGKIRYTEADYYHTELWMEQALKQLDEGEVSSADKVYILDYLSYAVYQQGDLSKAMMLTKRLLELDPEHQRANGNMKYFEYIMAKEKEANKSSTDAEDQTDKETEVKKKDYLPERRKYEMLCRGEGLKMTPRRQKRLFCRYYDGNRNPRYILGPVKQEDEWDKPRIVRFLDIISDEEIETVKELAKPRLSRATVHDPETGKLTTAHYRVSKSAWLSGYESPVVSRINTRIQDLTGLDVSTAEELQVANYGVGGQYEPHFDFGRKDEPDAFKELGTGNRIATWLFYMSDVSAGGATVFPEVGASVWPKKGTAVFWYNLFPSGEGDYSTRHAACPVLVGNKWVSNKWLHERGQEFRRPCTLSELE
Experiment: Inhibition Assay
Description: Inhibition assay using procollagen-prolin, 2-oxoglutarate 4-dioxygenase.

Compound	pKi
O=C(O)c1cccc(O)c1	< 1.70
Oc1ccccc1O [1,2-Dihydroxybenzene, XI]	4.60
O=C(O)Cc1ccccc1 [Phenylacetate, XIX]	< 1.70
O=C(O)C(O)c1ccc(O)c(O)c1 (stereo unspecified) [3,4-Dihydroxymandelate, XVI]	5.05
O=C(O)c1cc(O)cc(O)c1 [3,5-dihydroxybenzoic acid]	2.05
O=C(O)c1c(O)cccc1O [2,6-Dihydroxybenzoate, VII]	2.96
Oc1cccc(O)c1	1.99
O=C(O)c1ccccc1O [salicylic acid]	2.64
O=C(O)CCc1ccc(O)c(O)c1 [3-(3,4-dihydroxyphenyl)propanoic acid]	4.89
Oc1cccc(O)c1O	4.52
O=C(O)/C=C/c1ccc(O)c(O)c1 [3,4-Dihydroxycinnamate, XVII]	4.74
Oc1ccc(O)cc1	1.85
O=C(O)c1cc(O)ccc1O [2,5-Dihydroxybenzoate, VI]	2.85
O=C(O)c1ccc(O)c(O)c1 [Protocatechuic acid (M1)]	5.30
O=C(O)[C@H](O)c1ccccc1 [(+)-Mandelate, XXI]	< 1.70
O=C(O)c1cc(O)c(O)c(O)c1 [Gallic Acid, F]	4.52
O=C(O)c1ccc(O)cc1 [4-Hydroxybenzoate, III]	2.49
O=C(O)c1cccc(O)c1O [2,3-Dihydroxybenzoate, IV]	4.15
O=C1OC(C(O)CO)C(O)C1O (stereo unspecified) [5-(1,2-Dihydroxy-ethyl)-3,4-dihydroxy-dihydro-furan-2-one]	< 1.70
O=C(O)c1ccc(O)cc1O [beta-Resorcylic acid]	3.28
O=C(O)Cc1ccc(O)c(O)c1 [SMR000326727]	5.05

From BindingDB's records for PubMed 3011801 (University of Oulu, 1986)
